Reference: patent US20260258039A1, “AROMATIC COMPOUND, METHOD FOR PREPARING SAME, AND USE THEREOF IN PREPARATION OF ESTROGEN RECEPTOR DEGRADER” (Hinova Pharmaceuticals Inc., priority 2022, published 2026)
Like-named read-outs stand apart in the source and are kept apart here.

What was measured:
[1] = target: T1, ER (Homo sapiens, UniProt P03372); assay: Degradation activities on ER (ELISA) in T47D breast cancer cells; format: cell-based; conditions: T47D cells, 24 h, ELISA; for DC50: concentration required to degrade 50% of the target protein; for Dmax: maximum percentage of target protein degraded
T1 construct: T47D breast cancer cells were subcultured in cell culture medium; endogenous in cells; host or cells: T47D breast cancer cells
T1 sequence (P03372 1-595): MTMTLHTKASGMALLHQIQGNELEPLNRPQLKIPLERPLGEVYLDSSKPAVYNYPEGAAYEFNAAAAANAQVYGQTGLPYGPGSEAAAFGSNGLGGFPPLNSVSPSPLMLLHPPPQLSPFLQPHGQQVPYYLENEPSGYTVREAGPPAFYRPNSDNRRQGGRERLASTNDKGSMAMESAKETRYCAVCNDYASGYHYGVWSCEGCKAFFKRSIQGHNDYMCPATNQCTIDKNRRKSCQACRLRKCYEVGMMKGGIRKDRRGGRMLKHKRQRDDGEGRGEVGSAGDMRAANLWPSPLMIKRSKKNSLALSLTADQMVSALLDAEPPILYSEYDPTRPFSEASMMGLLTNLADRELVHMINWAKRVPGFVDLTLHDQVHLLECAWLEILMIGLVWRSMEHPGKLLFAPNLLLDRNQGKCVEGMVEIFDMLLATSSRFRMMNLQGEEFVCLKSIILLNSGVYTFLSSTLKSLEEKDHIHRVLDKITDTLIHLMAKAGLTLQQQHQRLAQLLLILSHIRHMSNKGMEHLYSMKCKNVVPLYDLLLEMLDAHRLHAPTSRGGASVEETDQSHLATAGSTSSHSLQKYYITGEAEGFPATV
Summary of the method: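 T47D cells were seeded at 2.5×10^4/well, grown 3 days at 37 °C, 5% CO2, then exposed 24 h to compound at 100, 25, 6.25, 1.56, 0.39 and […] nM (final). ER protein was quantified by sandwich ELISA with HRP/TMB read at 450 nm, and DC50 and Dmax came from dose-response fits.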

[2] = target: T1, ER; assay: Degradation activities on ER (Western blotting) in T47D breast cancer cells; format: cell-based; conditions: Western blot; for Percentage reduction of ER: 24 h
Protocol: T47D breast cancer cells were subcultured in cell culture medium, and the cells in good growth condition were seeded into 6-well plate at 2 mL/well, with 2.5×10^5 cells per well. The cells were incubated overnight in a 37° C. incubator under 5% CO2. The drug was prepared into 10 mM stock solution with dimethyl sulfoxide (DMSO). Prior to use, the stock solution was diluted with DMSO in a ratio of 1:3. […] of the diluted compound was added to the cell culture wells (to ensure a DMSO concentration of 0.1% in the culture system), and each concentration was repeated twice. The plate were gently shaken to mix. Additionally, the negative control wells (containing equal amount of DMSO) and the positive control wells were set up. After 24 hours of culture, the cells were lysed with RIPA cell lysis buffer to extract proteins, and the protein concentration was measured using a BCA kit. The protein loading buffer (5×) was added, and the plate was heated at 100° C. for 5 min. Then, the sample was stored at −20° C. […] of protein collected from each well was loaded onto a polyacrylamide gel for electrophoresis. The protein is transferred from the polyacrylamide gel to a PVDF membrane, blocked with 5% skim milk at room temperature for 1 h, and incubated overnight at 4° C. with primary antibodies Anti-ERα rabbit mAb (CST, Cat #: 8644S) and Anti-GAPDH rabbit mAb (CST, Cat #: 2118L). The membrane was washed three times with TBST solution, with 10 min for each time. The secondary antibody (horseradish peroxidase-labeled goat anti-rabbit IgG) was incubated at room temperature for 2 h, and then the membrane was washed three times with TBST solution, with 10 min for each time. Finally, ECL chromogenic solution was added for color development, and an automatic chemiluminescence instrument was used to take pictures. Images were collected and analyzed.
The degradation activities of the compounds according to the present invention towards ER, as tested by western blotting, are presented in Table 2

[3] = test system: MCF-7 breast cancer cells; assay: Inhibition of proliferation of MCF-7 breast cancer cells (agarose culture, CellTiter-Glo 3D); format: cell-based; conditions: MCF-7 cells, 15 days of cultivation, read-out: IC50
[4] = Pharmacokinetics in female ICR mice; conditions: plasma; for AUCinf (μg*h/mL) / T1/2 (h) / AUC(0-inf): oral administration 3 mg/kg, female ICR mice; for half-life / AUC(0-inf): female, ICR, mouse, po; for AUC(0-inf): AUCinf (μg*h/mL)
Protocol: Pharmacokinetic experimental steps: A suitable amount of compound to be administered was weighed, and after the final volume required was calculated, a drug solution with corresponding concentration was prepared using the medium (DMSO/HS-15/Tween 80/D5W (5:5:2:88, v/v/v/v)). For intravenous administration, each drug was administered to 9 animals (female ICR mice, provided by Chengdu Dossy Experimental Animal Co., Ltd.) at a dose of 1 mg/kg (drug volume of 10 mL/kg, drug concentration of 0.1 mg/mL). After administration, samples were alternately collected from three animals of each group at time points of 5 min, 15 min, 30 min, 1 h, 2 h, 4 h, 8 h, 12 h, and 24 h. For oral gavage, each drug was administered to 9 animals (female ICR mice) at a dose of 3 mg/kg (drug volume of 10 mL/kg, drug concentration of 0.3 mg/mL). After administration, samples are alternately collected from three animals of each group at time points of 15 min, 30 min, 1 h, 2 h, 4 h, 6 h, 8 h, 12 h, and 24 h. The samples were anticoagulated with EDTA-K2 and centrifuged at 4° C. for 5 min to separate the plasma. The plasma samples were vortexed and mixed. A suitable amount of internal standard working solution was added to the 96-well plate containing samples used for plotting standard curve, samples used for quality control, or samples to be tested; A suitable amount of methanol was added to the blank sample, vortexed and mixed thoroughly, and then centrifuged for 15 min before the supernatant was collected and injected to LC-MS/MS for analysis. The plasma concentration at each time point was used to calculate the main pharmacokinetic parameters using the Winnolin 8.3 non-compartmental model.

Row | Structure (SMILES) | DC50 [1] [nM] | Dmax ([1]; read-out: Dmax) [%] | Percentage reduction of ER ([2]; compound concentration 1 nM) [%] | IC50 ([3]; Homo sapiens, MCF7, 360 h) [nM] | AUCinf (μg*h/mL) [4] | T1/2 (h) [4] | Percentage reduction of ER ([2]; compound concentration 10 nM) [%] | half-life ([4]; 3 mg/kg) [h] | AUC(0-inf) ([4]; 3 mg/kg) [ng·h/mL] | Dmax [1] | IC50 [3] [nM] | AUCinf (μg*h/mL) ([4]; 3 mg/kg) | ER degradation activity (in words) [2]
1 | O=C1CCC(N2Cc3cc(N4CC5(CCN(CC6CCN(c7ccc([C@@H]8c9ccc(O)cc9OC[C@@H]8c8ccccc8F)cc7)CC6)CC5)C4)ccc3C2=O)C(=O)N1 (some centres unmarked) [Example 30] | < 10 | 50 to 75 | 62 | < 10 | B (B: 1.4-2.5 μg*h/mL) | A (A: >3.5 h) | – | – | – | – | – | – | –
2 | O=C1CCC(N2Cc3cc(N4CC5(CCN(CC6CCN(c7c(F)cc([C@@H]8c9ccc(O)cc9OC[C@@H]8c8ccccc8F)cc7F)CC6)CC5)C4)ccc3C2=O)C(=O)N1 (stereo partly drawn) [Example 32, 3-(5-(7-((1-(2,6-difluoro-4-((3,4-cis)-3-(2-fluorophenyl)-7-hydroxybenzodihydropyran-4-yl)phenyl)piperidin-4-yl)methyl)-2,7-diazaspiro[3.5]nonane-2-yl)-1-oxoisoinodolin-2-yl)piperidin-2,6-dione] | < 10 | 50 to 75 | – | < 10 | – | – | 81 | > 3.5 | 1400 to 2500 | – | – | – | –
3 | O=C1CCC(N2Cc3cc(N4CC5(CCN(CC6CCN(c7c(F)cc([C@@H]8c9ccc(O)cc9OC[C@@H]8c8c(F)cccc8F)cc7F)CC6)CC5)C4)ccc3C2=O)C(=O)N1 (some centres unmarked) [Example 37] | < 10 | 50 to 75 | – | – | – | – | – | > 3.5 | > 2500 | – | – | – | –
4 | O=C1CCC(N2Cc3cc(N4CC5(CCN(CC6CCN(c7ccc([C@@H]8c9ccc(O)cc9OC[C@@H]8c8c(F)cccc8F)cc7)CC6)CC5)C4)ccc3C2=O)C(=O)N1 (some centres unmarked) [Example 63, 3-(5-(7-((1-(4-(3-(2,6-difluorophenyl)-7-hydroxyl-chroman-4-yl)phenyl)piperidin-4-yl)methyl)-2,7-diazaspiro[3.5]nonane-2-yl)-1-oxoisoinodolin-2-yl)piperidin-2,6-dione] | – | 50 to 75 | – | < 10 | – | – | 51 | > 3.5 | > 2500 | – | – | – | –
5 | O=C1CCC(N2Cc3cc(N4CC5(CCN(CC6CCN(c7ccc([C@@H]8c9ccc(O)cc9OC[C@@H]8c8c(F)cccc8F)cc7F)CC6)CC5)C4)ccc3C2=O)C(=O)N1 (some centres unmarked) [Example 65, 3-(5-(7-((1-(4-(3-(2,6-difluorophenyl)-7-hydroxyl-chroman-4-yl)-2-fluorophenyl)piperidin-4-yl)methyl)-2,7-diazaspiro[3.5]nonane-2-yl)-1-oxoisoinodolin-2-yl)piperidin-2,6-dione] | < 10 | 50 to 75 | – | 11 to 50 | – | – | – | > 3.5 | > 2500 | – | – | – | –
6 | O=C1CCC(N2Cc3cc(N4CC5(CCN(CC6CCN(c7ccc([C@@H]8c9ccc(O)cc9OC[C@@H]8c8c(F)cccc8F)cc7F)CC6)CC5)C4)ccc3C2=O)C(=O)N1 (stereo partly drawn) [Example 70, 3-(5-(7-((1-(4-((3S,4R)-3-(2,6-difluorophenyl)-7-hydroxychroman-4-yl)-2-fluorophenyl)piperidin-4-yl)methyl)-2,7-diazaspiro[3.5]nonane-2-yl)-1-oxoisoinodolin-2-yl)piperidin-2,6-dione] | < 10 | – | – | – | A (A: > 2.5 μg*h/mL) | A (A: >3.5 h) | – | – | – | B (B: 75-50%) | < 10 | – | –
7 | O=C1CCC(N2Cc3cc(N4CC5(CCN(CC6CCN(c7ccc([C@@H]8c9ccc(O)cc9OC[C@@H]8c8c(F)cccc8F)cc7)CC6)CC5)C4)ccc3C2=O)C(=O)N1 (stereo partly drawn) [Example 73, 3-(5-(7-((1-(4-((3S,4R)-3-(2,6-difluorophenyl)-7-hydroxychroman-4-yl)phenyl)piperidin-4-yl)methyl)-2,7-diazaspiro[3.5]nonane-2-yl)-1-oxoisoindol-2-yl)piperidin-2,6-dione] | – | – | – | – | – | A (A: >3.5 h) | – | – | – | B (B: 75-50%) | < 10 | B (B: 1.4-2.5 μg*h/mL) | –
8 | O=C1CCC(N2C(=O)c3ccc(N4CC5(CCN(CC6CCN(c7ccc([C@@H]8c9ccc(O)cc9OC[C@@H]8c8ccccc8)cc7)CC6)CC5)C4)cc3C2=O)C(=O)N1 (stereo partly drawn) [Example 81, 2-(2,6-dioxopiperidin-3-yl)-5-(7-((1-(4-((3S,4R)-7-hydroxyl-3-phenylchroman-4-yl)phenyl)piperidin-4-yl)methyl)-2,7-diazaspiro[3.5]nonane-2-yl)isoinodolin-1,3-dione] | 10 to 50 | 50 to 75 | – | 11 to 50 | – | – | 82 | – | – | – | – | – | good ER degradation activity
9 | O=C1CCC(N2Cc3cc(N4CC5(CCN(CC6CCN(c7ccc([C@@H]8c9ccc(O)cc9OC[C@@H]8c8ccccc8)cc7F)CC6)CC5)C4)ccc3C2=O)C(=O)N1 (stereo partly drawn) [Example 88, 3-(5-(7-((1-(2-fluoro-4-(cis-7-hydroxyl-3-phenylchroman-4-yl)phenyl)piperidin-4-yl)methyl)-2,7-diazaspiro[3.5]nonane-2-yl)-1-oxoisoinodolin-2-yl)piperidin-2,6-dione] | < 10 | 50 to 75 | – | < 10 | – | – | 47 | – | – | – | – | – | –
10 | O=C1CCC(N2Cc3cc(N4CC5(CCN(CC6CCN(c7ccc([C@@H]8c9ccc(O)cc9OC[C@@H]8c8ccccc8F)cc7)CC6)CC5)C4)ccc3C2=O)C(=O)N1 (stereo partly drawn) [Example 89, 3-(5-(7-((1-(4-((3S, 4R)-3-(2-fluorophenyl)-7-hydroxychroman-4-yl)phenyl)piperidin-4-yl)methyl)-2,7-diazaspiro[3.5]nonane-2-yl)-1-oxoisoinodolin-2-yl)piperidin-2,6-dione] | < 10 | – | 52 | – | – | – | – | > 3.5 | 1400 to 2500 | B (B: 75-50%) | < 10 | – | –
